Experimental data published in patent EP0071535B1, “(4-(2 and/or 3-Thienylacetamido)-phenoxy)-hydroxyaminopropanes, their preparation, their therapeutic use and intermediates” (CARPIBEM (CENTRE D'ACTIVITE ET DE RECHERCHE PHARMACEUTIQUE …, priority 1981, dated 1983).

How the values were obtained:
[1] = tested on: effets β1 (augmentation de la force contractile du myocarde) de l'isoprénaline; test: β-blocking activity: inhibition of the β1 effects of intravenous isoprenaline in anaesthetised dogs; assay type: in vivo, chiens; conditions: dog; for inhibition at 0.001 mg/kg / inhibition at 0.003 mg/kg / inhibition at 0.01 mg/kg / inhibition at 0.1 mg/kg: Canis lupus familiaris, iv, inhibition given with negative sign, read-out: % d'inhibition des effets β1^(+) de l'Isoprénaline; for inhibition at 0.001 mg/kg: 0,001 mg/kg I.V.; for inhibition at 0.003 mg/kg: 0,003 mg/kg I.V.; for inhibition at 0.01 mg/kg: 0,010 mg/kg I.V.; for inhibition at 0.1 mg/kg: 0,100 mg/kg I.V.
Protocol: (§1) Des chiens tout-venants mâles ou femelles sont anesthésiés au mébubarbital sodique (30 mg/kg I.V.) et ventilés artificiellement par une pompe Pesty RPP. Ils sont supplémentés en oxygène.
(§2) On mesure: • - la pression carotidienne systolique et diastolique • - la force contractile du myocarde.
(§3) Les signaux sont amplifiés et enregistrés sur Dynograph Beckman.
(§4) L'activité β bloquante adrénergique a été étudiée vis-à-vis des effets β1 (augmentation de la force contractile du myocarde) et des effets P2 (diminution de la pression artérielle disstolique) de l'isoprénaline administrée par voie intraveineuse.
(§5) On calcule le pourcentsge d'inhibition des effets β1 et des effets β2 de l'isoprénaline en fonction des doses (mg.kg I.V.) des différents exemples.
(§6) Les exemples sont injectés dans le veine saphène aux doses (exprimées en base) de: 0,0003 0,001 0,003 0,01 0,1 1,0 et 4,0 ou 8,0 mg.kg-1.

[2] = tested on: effets β2 (diminution de la pression artérielle diastolique) de l'isoprénaline; test: β-blocking activity: inhibition of the β2 effects of intravenous isoprenaline in anaesthetised dogs; assay type: in vivo, chiens; conditions: dog; for inhibition at 0.001 mg/kg / inhibition at 0.003 mg/kg / inhibition at 0.01 mg/kg / inhibition at 0.1 mg/kg: Canis lupus familiaris, iv, inhibition given with negative sign, read-out: % d'inhibition des effets β2^⊕ de l'Isoprénaline; for inhibition at 0.001 mg/kg: 0,001 mg/kg I.V.; for inhibition at 0.003 mg/kg: 0,003 mg/kg I.V.; for inhibition at 0.01 mg/kg: 0,010 mg/kg I.V.; for inhibition at 0.1 mg/kg: 0,100 mg/kg I.V.
Protocol: as §1, §2, §3, §4, §5, §6

[3] = tested on: rat génétiquement hypertendu: Rat OKAMOTO; test: Antihypertensive activity in spontaneously hypertensive rats (tail-cuff systolic pressure and heart rate after oral dosing); assay type: in vivo
Protocol: Des rats mâles âgés de 13 à 21 semaines présentant une hypertension spontanée génétiquement transmissible (souche OKAMOTO provenance IFFA CREDO) sont placés dans une enceinte thermostatée à 38°C. Les rats sont laissés en situation libre. La pression artérielle est mesurée par un sphygmomanomètre Narco Biosystem. Un manchon est placé à la base de la queue et un détecteur enregistre le pouls en aval du manchon. Celui-ci est gonflé jusqu'à suppression du pouls il est ensuite progressivement dégonflé. La pression mesurée à la reprise des battements cardiaques est la pression artérielle systolique. On calcule la fréquence cardiaque à partir de l'enregistrement du pouls artériel. Les produits à étudiar sont mis en suspension el administrés par voie orale sous un volume de 1 ml pour 100 g de poids corporel. Les mesures sont répétées à intervalles réguliers.
Les valeurs moyennes avant traitement pour les différents lots de rats sont pour la pression artérielle systolique de 190 à 200 mmHg et pour la fréquence cardiaque de 305 à 350 battements par minute.
Le tableau III ci-après donne la moyenne des variations de la pression systolique (mmHg) de la fréquence cardisque (battements/minute) et les écarts type à la moyenne obtenus 1 heure 3 heures et 5 heures après administration orale.

[4] = 0.001 mg.kg^-1 voie intraveineuse
[5] = 0.003 mg.kg^-1 voie intraveineuse
[6] = 0.01 mg.kg^-1 voie intraveineuse
[7] = 0.1 mg.kg^-1 voie intraveineuse
[8] = 1.0 mg.kg^-1 voie intraveineuse
[9] = 8.0 mg.kg^-1 voie intraveineuse
[10] = 128 mg.kg^-1 V.O, T+3 heures, mean

Structure (SMILES)	Pourcentages d'inhibition des effets β1 de l'Isoprénaline [1, 4]	Pourcentages d'inhibition des effets β1 de l'Isoprénaline [1, 5]	Pourcentages d'inhibition des effets β1 de l'Isoprénaline [1, 6]	Pourcentages d'inhibition des effets β1 de l'Isoprénaline [1, 7]	Pourcentages d'inhibition des effets β1 de l'Isoprénaline [1, 8]	Pourcentages d'inhibition des effets β1 de l'Isoprénaline [1, 9]	inhibition at 0.001 mg/kg [1]	inhibition at 0.003 mg/kg [1]	inhibition at 0.01 mg/kg [1]	inhibition at 0.1 mg/kg [1]	inhibition at 0.001 mg/kg [2]	inhibition at 0.003 mg/kg [2]	inhibition at 0.01 mg/kg [2]	inhibition at 0.1 mg/kg [2]	Fréquence cardiaque Δ (battements/min) T+1 heure m (sm) ([3]; 64 mg.kg^-1 V.O, T+1 heure)	Pression systolique Δ (mmHg) T+1 heure m (sm) ([3]; 64 mg.kg^-1 V.O, T+1 heure)	Fréquence cardiaque Δ (battements/min) T+3 heures m (sm) ([3]; 64 mg.kg^-1 V.O, T+3 heures)	Pression systolique Δ (mmHg) T+3 heures m (sm) ([3]; 64 mg.kg^-1 V.O, T+3 heures)	Fréquence cardiaque Δ (battements/min) T+5 heures m (sm) ([3]; 64 mg.kg^-1 V.O, T+5 heures)	Pression systolique Δ (mmHg) T+5 heures m (sm) ([3]; 64 mg.kg^-1 V.O, T+5 heures)	further results
CC(C)(C)NCC(O)COc1ccc(NC(=O)Cc2cccs2)cc1C#N (stereo not drawn) [exemple 7, 1-[2-cyano 4-(2-thiénylacétamido)phénoxy] 3-terbutylamino 2-propanol]	24%	70%	86%	100%	100%	100%	-24%	-70%	-86%	-100%	0%	-4%	-16%	-36%	–	–	–	–	–	–	Pourcentages d'inhibition des effets β2 de l'Isoprénaline [2, 5]: 4%; Pourcentages d'inhibition des effets β2 de l'Isoprénaline [2, 6]: 16%; Pourcentages d'inhibition des effets β2 de l'Isoprénaline [2, 7]: 36%; Pourcentages d'inhibition des effets β2 de l'Isoprénaline [2, 8]: 88%; Pourcentages d'inhibition des effets β2 de l'Isoprénaline [2, 9]: 100%; Fréquence cardiaque Δ (battements/min) T+1 heure m (sm) ([3]; 128 mg.kg^-1 V.O, T+1 heure): +36 (4) battements/min; Pression systolique Δ (mmHg) T+1 heure m (sm) ([3]; 128 mg.kg^-1 V.O, T+1 heure): -27 (5) mmHg; Pression systolique Δ (mmHg) T+1 heure m ([3]; 128 mg.kg^-1 V.O, T+1 heure, mean): -27 mmHg; Fréquence cardiaque Δ (battements/min) T+3 heures m (sm) ([3]; 128 mg.kg^-1 V.O, T+3 heures): +29 (4) battements/min; Pression systolique Δ (mmHg) T+3 heures m (sm) ([3]; 128 mg.kg^-1 V.O, T+3 heures): -27 (5) mmHg; Fréquence cardiaque Δ (battements/minute) T + 3 heures m [3, 10]: +29 battements/minute; Pression systolique Δ (mmHg) T+3 heures m [3, 10]: -27 mmHg; Fréquence cardiaque Δ (battements/min) T+5 heures m (sm) ([3]; 128 mg.kg^-1 V.O, T+5 heures): +25 (9) battements/min; Pression systolique Δ (mmHg) T+5 heures m (sm) ([3]; 128 mg.kg^-1 V.O, T+5 heures): -31 (5) mmHg; Pression systolique Δ (mmHg) T+5 heures m ([3]; 128 mg.kg^-1 V.O, T+5 heures, mean): -31 mmHg
C=CCc1cc(NC(=O)Cc2cccs2)ccc1OCC(O)CNC(C)(C)C (stereo not drawn) [exemple 11, 1-[2-allyl 4-(2-thiénylacétamido)phénoxy] 3-ter-butylamino 2-propanol]	11%	37%	70%	100%	100%	100%	-11%	-37%	-70%	-100%	0%	0%	0%	-17%	+7 (8) battements/min	-54 (1) mmHg	+10 (9) battements/min	-49 (10) mmHg	0 (9) battements/min	-44 (11) mmHg	Pourcentages d'inhibition des effets β2 de l'Isoprénaline [2, 7]: 17%; Pourcentages d'inhibition des effets β2 de l'Isoprénaline [2, 8]: 77%; Pourcentages d'inhibition des effets β2 de l'Isoprénaline [2, 9]: 100%
CC(C)NCC(O)COc1ccc(NC(=O)Cc2ccsc2)cc1Br (stereo not drawn) [exemple 42, 1-[2-bromo 4-(3-thiénylacétamido)phénoxy] 3-isopropylamino 2-propanol]	–	–	–	–	–	–	-29%	-51%	-70%	-100%	0%	0%	0%	0%	+50 (19) battements/min	-43 (8) mmHg	+17 (12) battements/min	-55 (7) mmHg	+33 (12) battements/min	-51 (10) mmHg	–
C=CCc1cc(NC(=O)Cc2ccsc2)ccc1OCC(O)CNC(C)(C)C (stereo not drawn) [exemple 38, 1-[2-allyl 4-(3-thiénylacétamido)phénoxy] 3-terbutylamino 2-propanol]	–	–	–	–	–	–	-5%	-35%	-73%	-100%	-4%	-4%	-6%	-27%	+39 (9) battements/min	-31 (5) mmHg	+21 (9) battements/min	-26 (5) mmHg	+29 (13) battements/min	-34 (7) mmHg	–
CC(C)NCC(O)COc1ccc(NC(=O)Cc2cccs2)cc1Br (stereo not drawn) [exemple 40, 1-[2-bromo 4-(2-thiénylacétamido)phénoxy] 3-isopropylamino 2-propanol]	–	–	–	–	–	–	0%	-19%	-53%	-93%	0%	0%	0%	-4%	–	–	–	–	–	–	Fréquence cardiaque Δ (battements/min) T+1 heure m (sm) ([3]; 128 mg.kg^-1 V.O, T+1 heure): +23 (23) battements/min; Pression systolique Δ (mmHg) T+1 heure m (sm) ([3]; 128 mg.kg^-1 V.O, T+1 heure): -58 (10) mmHg; Fréquence cardiaque Δ (battements/min) T+3 heures m (sm) ([3]; 128 mg.kg^-1 V.O, T+3 heures): +20 (14) battements/min; Pression systolique Δ (mmHg) T+3 heures m (sm) ([3]; 128 mg.kg^-1 V.O, T+3 heures): -63 (7) mmHg; Fréquence cardiaque Δ (battements/min) T+5 heures m (sm) ([3]; 128 mg.kg^-1 V.O, T+5 heures): +18 (11) battements/min; Pression systolique Δ (mmHg) T+5 heures m (sm) ([3]; 128 mg.kg^-1 V.O, T+5 heures): -63 (3) mmHg
CC(C)(C)NCC(O)COc1ccc(NC(=O)Cc2cccs2)cc1Cl (stereo not drawn) [exemple 43, 1-[2-chloro 4-(2-thiénylacétamido)phénoxy] 3-terbutylamino 2-propanol]	–	–	–	–	–	–	-18%	-49%	-82%	-100%	0%	0%	0%	-22%	+13 (20) battements/min	-29 (9) mmHg	+23 (7) battements/min	-44 (6) mmHg	+30 (12) battements/min	-44 (4) mmHg	–
